ChEMBL document CHEMBL2311387, “Dose-dependent interaction of trans-resveratrol with biomembranes: effects on antioxidant property” (J Med Chem, 2013)
Active and inactive are the calls of the source. The calls are words filed in the database; no cut-off is given here.

Experiments:
[1] = Induction of budding morphology in human erythrocytes up to 100 uM after 1 hr by cold field emission scanning electron microscopic analysis; assay type: cell-based; conditions: erythrocyte
[2] = Induction of blebbing morphology in human erythrocytes up to 100 uM after 1 hr by cold field emission scanning electron microscopic analysis; assay type: cell-based; conditions: erythrocyte
[3] = Binding affinity to curcumin encapsulated liposomes assessed as curcumin release from unilamellar vesicles at 100 uM after 20 mins NMR spectroscopic analysis
[4] = Binding affinity to curcumin encapsulated liposomes assessed as curcumin release from unilamellar vesicles after 20 mins by NMR spectroscopic analysis
[5] = Binding affinity to planer lipid bilayer assessed as change in height of semicircle pattern by admittance spectroscopic analysis; assay type: physicochemical
[6] = Binding affinity to planer lipid bilayer assessed as reduction in charge transfer resistance by admittance spectroscopic analysis; assay type: physicochemical
[7] = Binding affinity to planer lipid bilayer assessed as change in diameter of semicircle pattern by admittance spectroscopic analysis; assay type: physicochemical
[8] = Binding affinity to planer lipid bilayer assessed as reduction in diameter of semicircle pattern at up to 60 uM by admittance spectroscopic analysis; assay type: physicochemical
[9] = Binding affinity to planer lipid bilayer assessed as increase in cathodic current by cyclic voltammetric analysis; assay type: physicochemical
[10] = Binding affinity to planer lipid bilayer assessed as increase in anodic current by cyclic voltammetric analysis; assay type: physicochemical
[11] = Antioxidant activity in planer lipid bilayer membrane assessed as inhibition of DPPH-induced reduction in height of semicircle at 50 to 100 uM by admittance spectroscopic analysis; assay type: functional, cell membranes
[12] = Induction of morphological changes in human erythrocytes at => 60 uM after 1 hr by cold field emission scanning electron microscopic analysis; assay type: cell-based; conditions: erythrocyte
[13] = test system: MCF7; experiment: Cytotoxicity against human MCF7 cells at 100 uM after 24 hrs by MTS assay; assay type: cell-based; conditions: mcf7, 24 h
[14] = Antioxidant activity in planer lipid bilayer membrane assessed as reduction in 100 uM DPPH-induced charge transfer resistance at 100 uM by admittance spectroscopic analysis; assay type: functional, cell membranes; set-up: scale not given: the % may be the effect or the level left
[15] = Antioxidant activity in planer lipid bilayer membrane assessed as reduction in 100 uM DPPH-induced charge transfer resistance at 50 uM by admittance spectroscopic analysis; assay type: functional, cell membranes; set-up: scale not given: the % may be the effect or the level left
[16] = Antioxidant activity in planer lipid bilayer membrane assessed as reduction in 50 uM DPPH-induced charge transfer resistance at 100 uM by admittance spectroscopic analysis; assay type: functional, cell membranes; set-up: scale not given: the % may be the effect or the level left
[17] = Antioxidant activity in planer lipid bilayer membrane assessed as reduction in 50 uM DPPH-induced charge transfer resistance at 50 uM by admittance spectroscopic analysis; assay type: functional, cell membranes; set-up: scale not given: the % may be the effect or the level left
[18] = Antioxidant activity in planer lipid bilayer membrane assessed as inhibition of DPPH-induced reduction in diameter of semicircle at 50 to 100 uM by admittance spectroscopic analysis; assay type: functional, cell membranes
[19] = test system: Radical scavenging activity; experiment: Antioxidant activity assessed as DPPH free radical scavenging activity at >100 uM after 45 mins by UV-visible spectrophotometric analysis relative to vitamin C; assay type: functional
[20] = test system: Radical scavenging activity; experiment: Antioxidant activity assessed as DPPH free radical scavenging activity at <100 uM after 45 mins by UV-visible spectrophotometric analysis relative to vitamin C; assay type: functional
[21] = Induction of destruction morphology in human erythrocytes up to 100 uM after 1 hr by cold field emission scanning electron microscopic analysis; assay type: cell-based; conditions: erythrocyte

## Oc1ccc(/C=C/c2cc(O)cc(O)c2)cc1 [RESVERATROL]
[1]
  Activity: Toxic
[2]
  Activity: Toxic
[3]
  Activity: 17%
[4]
  Activity: Dose-dependent effect
[5]
  Activity: Dose-dependent effect
[6]
  Activity: Active
[7]
  Activity: Dose-dependent effect
[8]
  Activity: Active
[9]
  Activity: Dose-dependent effect
[10]
  Activity: Dose-dependent effect
[11]
  inhibition: Active
[12]
  Activity: Non-toxic
[13]
  Activity: 50%
[14]
  Activity: 10.9%
[15]
  Activity: 22%
[16]
  Activity: 7.7%
[17]
  Activity: 19.5%
[18]
  inhibition: Active
[19]
  Activity: Active
[20]
  Activity: Active
[21]
  Activity: Toxic
